Measured values from patent US20050042354A1, “Antiradicals and fat compositions, foods, drinks, drugs or feeds containing the antiradicals” (priority 2001, published 2005).

Experiment: Trolox relative activity in ORAC method (antiradical activity in serum)
Assay type: biochemical, human
Conditions: for Trolox relative activity: ORAC method, human blood serum, 60-μM 4-vinyl-2,6-dimethoxyphenol, 300-μM α-tocopherol
Protocol: 2) Trolox Relative Activity in ORAC Method
10 μl of a test substance in a designated concentration, or
6-hydroxy-2,5,7,8-tetramethylchroman-2-carboxylic acid (Trolox) solution is added to 10 μl of 200-fold diluted solution of human blood serum. Then, 180 μl of 3.73-mg/l β-phycoerythrin (β-PE) is added, and the mixture is preheated at 37° C. for 1 min. 10 μl of 80-mM 2,2′-azobis(2-amidinopropane)-dihydrochloride (AAPH) is then added, and the reaction is started at 37° C. For the dilution of the serum or reagents added, phosphate buffer (75 mM, pH 7.0) is used. As a control, this phosphate buffer is used in place of the test substance. Fluorescence intensity (Ex: 540 nm, Em: 565 nm) of the reactant is measured every 2 min after the start of the reaction, and the relationship between the fluorescence intensity (y-axis) and the time x-axis) is plotted on a graph. The area (S) enclosed by the obtained curve, x and y axes is calculated for the test substance, Trolox and the control. The antiradical activity of the test substance in the serum is calculated as a Trolox relative activity using the following equation. Trolox relative activity=(Test substance's S−Control's S)/(Trolox's S−Control's S)×(Trolox's concentration/Test substance's concentration) In this testing system, AAPH generates peroxyradicals, and the peroxyradicals oxidize the substrate β-PE, which results in a reaction to eliminate fluorescence of β-PE. Trolox is a derivative of water-soluble vitamin E, and is used as a standard substance of the antioxidation reaction in this testing system. These reaction substrate and standard substance are those used in an oxygen radical absorbance capacity (ORAC) method. The ORAC method is widely used to obtain antioxydation and antiradical activities of biological samples and natural materials as values relative to those of a standard substance, in an easy and accurate manner. (5) Rancimat Test

Compound	Trolox relative activity	Trolox relative activity in serum relative to α-tocopherol (in serum)
C=Cc1cc(OC)c(O)c(OC)c1 [Example 7, 4-vinyl-2,6-dimethoxyphenol]	0.58	approximately 7 folds
Cc1c(C)c2c(c(C)c1O)CC[C@@](C)(CCC[C@H](C)CCC[C@H](C)CCCC(C)C)O2 [compound 1, α-tocopherol, reference compound]	0.08	
